Results reported in patent publication US20240409585A1, “MACROCYCLIC IMMUNOMODULATORS” (priority 2021, published 2024).
Numbered stars: 1 amine (or outer) side, 2 acyl side, 3 side chain; on linkers, the order of the positions; unused ones are H or OH. Bridge positions count the residues as written; N and C are the ends. Square brackets hold non-standard residues; d marks the D form. Peptide text beside a SMILES is read from it. * marks the point of attachment. ξ: configuration not given here. X39 = COc1cccc(-c2ccc(C[C@H](N[*:1])C(=O)[*:2])cc2)c1; Bip = N[C@@H](Cc1ccc(-c2ccccc2)cc1)C(=O)O; Phe(3-Me) = Cc1cccc(C[C@H](N)C(=O)O)c1; mTyr = N[C@@H](Cc1cccc(O)c1)C(=O)O; NMeF = CN[C@@H](Cc1ccccc1)C(=O)O; 4Pal = N[C@@H](Cc1ccncc1)C(=O)O; 2Thi = N[C@@H](Cc1cccs1)C(=O)O; Cha = N[C@@H](CC1CCCCC1)C(=O)O; Cit = NC(=O)NCCC[C@H](N)C(=O)O; AllylGly = C=CC[C@H](N)C(=O)O; Carboxymethyl = O=C(O)C*; NMeA = CN[C@@H](C)C(=O)O; Nle = CCCC[C@H](N)C(=O)O; Orn = NCCC[C@H](N)C(=O)O; Dab = NCC[C@H](N)C(=O)O; Dap = NC[C@H](N)C(=O)O; ξC = NC(CS)C(=O)O

Molecular target: T1, PE-labeled human PD-L1-Ig binding to Jurkat cell line over-expressing human PD-1 (Jurkat-PD-1) (Homo sapiens, UniProt Q15116)
T1 construct: expressed in transfected cells; host or cells: Jurkat
T1 sequence (Q15116 25-288): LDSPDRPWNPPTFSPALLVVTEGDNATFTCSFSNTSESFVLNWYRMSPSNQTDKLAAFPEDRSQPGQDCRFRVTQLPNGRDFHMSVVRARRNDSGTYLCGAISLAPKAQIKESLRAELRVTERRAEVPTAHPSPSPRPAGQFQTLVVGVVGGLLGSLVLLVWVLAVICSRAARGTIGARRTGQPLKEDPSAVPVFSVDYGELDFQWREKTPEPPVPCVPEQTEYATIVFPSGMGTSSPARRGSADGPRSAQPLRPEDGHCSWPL
Experiment: Jurkat-PD-1 Cell Binding High-Content Screening Assay (CBA): Method 1
Conditions: Jurkat-hPD-1 cells, PE-labeled PD-L1-Ig 20 nM final; read-out: Jurkat HPDL1 PD1 IC50 (uM) (Method 1)

| SMILES | IC50 |
| --- | --- |
| C=CC[C@H](NC(=O)C1CSCC(=O)N[C@@H](Cc2ccc(OCC(=O)O)cc2)C(=O)N[C@@H](CC=C)C(=O)N[C@@H](CC(=O)O)C(=O)N[C@@H](Cc2cccc(C)c2)C(=O)N[C@@H](CC(C)C)C(=O)N[C@@H](Cc2ccc(-c3ccccc3)cc2)C(=O)N[C@@H](C(C)C)C(=O)N(C)[C@@H](C)C(=O)N[C@H](CC(C)C)C(=O)N[C@@H](CC(N)=O)C(=O)N[C@@H](CC(C)C)C(=O)N[C@@H](C(C)C)C(=O)N[C@@H](CO)C(=O)N1)C(N)=O (stereo partly drawn) [Compound 1884] ({CH2CO}-Y(Carboxymethyl)[AllylGly]D[Phe(3-Me)]L[Bip]V[NMeA][dL]NLVS[ξC][AllylGly]-NH2; thioether N-14) | 0.03 µM |
| CC(C)C[C@@H]1NC(=O)[C@H](CCN)NC(=O)[C@@H](CC(C)C)NC(=O)[C@H](C)N(C)C(=O)[C@H](C(C)C)NC(=O)[C@H](Cc2ccc(-c3ccccc3)cc2)NC(=O)[C@H](C(C)C)NC(=O)[C@H](Cc2c[nH]c3ccccc23)NC(=O)[C@H](CC(=O)O)NC(=O)[C@H](Cc2cccc(O)c2)NC(=O)[C@H](CC(N)=O)NC(=O)CSC[C@@H](C(=O)N[C@@H](C)C(N)=O)NC(=O)[C@H]([C@@H](C)O)NC(=O)[C@H](C(C)C)NC1=O [Compound 1384] ({CH2CO}-N[mTyr]DWV[Bip]V[NMeA][dL][Dab]LVTCA-NH2; thioether N-14) | 0.02 µM |
| CC(C)C[C@@H]1NC(=O)[C@H](CCN)NC(=O)[C@@H](CC(C)C)NC(=O)[C@H](C)N(C)C(=O)[C@H](CCCN)NC(=O)[C@H](Cc2ccc(-c3ccccc3)cc2)NC(=O)[C@H](C(C)C)NC(=O)[C@H](Cc2c[nH]c3ccccc23)NC(=O)[C@H](CC(=O)O)NC(=O)[C@H](Cc2ccc(O)cc2)NC(=O)[C@H](CCC(N)=O)NC(=O)CSC[C@@H](C(=O)N[C@@H](C)C(N)=O)NC(=O)[C@H]([C@@H](C)O)NC(=O)[C@H](C(C)C)NC1=O [Compound 1363] ({CH2CO}-QYDWV[Bip][Orn][NMeA][dL][Dab]LVTCA-NH2; thioether N-14) | 0.11 µM |
| CC(C)C[C@@H]1NC(=O)[C@H](CCN)NC(=O)[C@@H](CC(C)C)NC(=O)[C@H](C)N(C)C(=O)[C@H](CC(=O)O)NC(=O)[C@H](Cc2ccc(-c3ccccc3)cc2)NC(=O)[C@H](C(C)C)NC(=O)[C@H](Cc2c[nH]c3ccccc23)NC(=O)[C@H](CC(=O)O)NC(=O)[C@H](Cc2ccc(O)cc2)NC(=O)[C@H](CC(N)=O)NC(=O)CSC[C@@H](C(=O)N[C@@H](C)C(N)=O)NC(=O)[C@H]([C@@H](C)O)NC(=O)[C@H](C(C)C)NC1=O [Compound 1260] ({CH2CO}-NYDWV[Bip]D[NMeA][dL][Dab]LVTCA-NH2; thioether N-14) | 0.17 µM |
| Cc1cccc(C[C@@H]2NC(=O)[C@H](CC(=O)O)NC(=O)[C@H](Cc3ccc(OCC(=O)O)cc3)NC(=O)[C@H](Cc3ccccc3)N(C)C(=O)CSC[C@@H](C(=O)N[C@@H](CCN)C(N)=O)NC(=O)[C@H](CO)NC(=O)[C@H](C(C)C)NC(=O)[C@H](CC3CCCCC3)NC(=O)[C@H](CCN)NC(=O)[C@@H](CC(C)C)NC(=O)[C@H](C)N(C)C(=O)[C@H](Cc3ccc(OCC(=O)O)cc3)NC(=O)[C@H](Cc3ccc(-c4ccccc4)cc3)NC(=O)[C@H](Cc3ccc(OCC(=O)O)cc3)NC2=O)c1 [Compound 1861] ({CH2CO}-[NMeF]Y(Carboxymethyl)D[Phe(3-Me)]Y(Carboxymethyl)[Bip]Y(Carboxymethyl)[NMeA][dL][Dab][Cha]VSC[Dab]-NH2; thioether N-14) | 0.1 µM |
| CC[C@H](C)[C@@H]1NC(=O)[C@H](Cc2ccc(-c3ccccc3)cc2)NC(=O)[C@H](C(C)C)NC(=O)[C@H](Cc2c[nH]c3ccccc23)NC(=O)[C@H](CC(=O)O)NC(=O)[C@H](Cc2ccc(O)cc2)NC(=O)[C@H](CN)NC(=O)CSC[C@@H](C(=O)N[C@@H](C)C(N)=O)NC(=O)[C@H]([C@@H](C)O)NC(=O)[C@H](C(C)C)NC(=O)[C@H](CC(C)C)NC(=O)[C@H](CCCNC(=N)N)NC(=O)[C@@H](CC(C)C)NC(=O)[C@H](C)N(C)C1=O [Compound 1488] ({CH2CO}-[Dap]YDWV[Bip]I[NMeA][dL]RLVTCA-NH2; thioether N-14) | 0.04 µM |
| CC(C)C[C@@H]1NC(=O)[C@H](Cc2c[nH]c3ccccc23)NC(=O)[C@H](CC(=O)O)NC(=O)[C@H](Cc2ccc(O)cc2)NC(=O)[C@H](Cc2ccccc2)NC(=O)CSC[C@@H](C(=O)N[C@@H](C)C(N)=O)NC(=O)[C@H](CO)NC(=O)[C@H](C(C)C)NC(=O)[C@H](CC(C)C)NC(=O)[C@H](CCCNC(=N)N)NC(=O)[C@@H](C)NC(=O)[C@H](C)N(C)C(=O)[C@H](CCCNC(=N)N)NC(=O)[C@H](Cc2ccc(-c3ccccc3)cc2)NC1=O [Compound 1782] ({CH2CO}-FYDWL[Bip]R[NMeA][dA]RLVSCA-NH2; thioether N-14) | 0.08 µM |
| CC(C)C[C@@H]1NC(=O)[C@H](Cc2c[nH]c3ccccc23)NC(=O)[C@H](CC(=O)O)NC(=O)[C@H](Cc2ccc(O)cc2)NC(=O)[C@H](Cc2ccccc2)NC(=O)CSC[C@@H](C(=O)N[C@@H](C)C(N)=O)NC(=O)[C@H](CO)NC(=O)[C@H](C(C)C)NC(=O)[C@H](CC(C)C)NC(=O)[C@H](CCC(=O)O)NC(=O)[C@@H](C)NC(=O)[C@H](C)N(C)C(=O)[C@H](CCC(=O)O)NC(=O)[C@H](Cc2ccc(-c3ccccc3)cc2)NC1=O [Compound 1792] ({CH2CO}-FYDWL[Bip]E[NMeA][dA]ELVSCA-NH2; thioether N-14) | 0.13 µM |
| CC(C)C[C@@H]1NC(=O)[C@H](Cc2c[nH]c3ccccc23)NC(=O)[C@H](CC(=O)O)NC(=O)[C@H](Cc2cccs2)NC(=O)[C@H](Cc2ccccc2)NC(=O)CSC[C@@H](C(=O)N[C@@H](C)C(N)=O)NC(=O)[C@H](CO)NC(=O)[C@H](C(C)C)NC(=O)[C@H](CC(C)C)NC(=O)[C@H](CC(N)=O)NC(=O)[C@@H](C)NC(=O)[C@H](C)N(C)C(=O)[C@H](C(C)C)NC(=O)[C@H](Cc2ccc(-c3ccccc3)cc2)NC1=O [Compound 1725] ({CH2CO}-F[2Thi]DWL[Bip]V[NMeA][dA]NLVSCA-NH2; thioether N-14) | 0.01 µM |
| CC(C)C[C@@H]1NC(=O)[C@H](CCCNC(=N)N)NC(=O)[C@@H](CC(C)C)NC(=O)[C@H](C)N(C)C(=O)[C@H](CCCNC(=N)N)NC(=O)[C@H](Cc2ccc(-c3ccccc3)cc2)NC(=O)[C@H](C(C)C)NC(=O)[C@H](Cc2c[nH]c3ccccc23)NC(=O)[C@H](CC(=O)O)NC(=O)[C@H](Cc2ccc(O)cc2)NC(=O)[C@H](CC(N)=O)NC(=O)CSC[C@@H](C(=O)N[C@@H](C)C(N)=O)NC(=O)[C@H]([C@@H](C)O)NC(=O)[C@H](C(C)C)NC1=O [Compound 1045] ({CH2CO}-NYDWV[Bip]R[NMeA][dL]RLVTCA-NH2; thioether N-14) | 0.2 µM |
| CCCC[C@@H]1NC(=O)[C@H](CCN)NC(=O)[C@@H](CC(C)C)NC(=O)[C@H](C)N(C)C(=O)[C@H](C(C)C)NC(=O)[C@H](Cc2ccc(-c3ccccc3)cc2)NC(=O)[C@H](C(C)C)NC(=O)[C@H](Cc2c[nH]c3ccccc23)NC(=O)[C@H](CC(=O)O)NC(=O)[C@H](Cc2ccc(O)cc2)NC(=O)[C@H](CC(N)=O)NC(=O)CSC[C@@H](C(=O)N[C@@H](C)C(N)=O)NC(=O)[C@H]([C@@H](C)O)NC(=O)[C@H](C(C)C)NC1=O [Compound 1295] ({CH2CO}-NYDWV[Bip]V[NMeA][dL][Dab][Nle]VTCA-NH2; thioether N-14) | 0.02 µM |
| Cc1cccc(C[C@@H]2NC(=O)[C@H](CC(=O)O)NC(=O)[C@H](Cc3ccc(OCC(=O)O)cc3)NC(=O)[C@H](Cc3ccc(OCC(=O)O)cc3)NC(=O)CSC[C@@H](C(N)=O)NC(=O)[C@H](CC(N)=O)NC(=O)[C@H](C(C)C)NC(=O)[C@H](CC3CCCCC3)NC(=O)[C@H](CCN)NC(=O)[C@@H](CC(C)C)NC(=O)[C@H](C)N(C)C(=O)[C@H](Cc3ccc(OCC(=O)O)cc3)NC(=O)[C@H](Cc3ccc(-c4ccccc4)cc3)NC(=O)[C@H](Cc3ccc(OCC(=O)O)cc3)NC2=O)c1 [Compound 1653] ({CH2CO}-Y(Carboxymethyl)Y(Carboxymethyl)D[Phe(3-Me)]Y(Carboxymethyl)[Bip]Y(Carboxymethyl)[NMeA][dL][Dab][Cha]VNC-NH2; thioether N-14) | 0.03 µM |
| Cc1cccc(C[C@@H]2NC(=O)[C@H](CC(=O)O)NC(=O)[C@H](Cc3ccc(O)cc3)NC(=O)[C@H](Cc3ccccc3)NC(=O)CSC[C@@H](C(=O)N[C@@H](C)C(N)=O)NC(=O)[C@H]([C@@H](C)O)NC(=O)[C@H](C(C)C)NC(=O)[C@H](CC(C)C)NC(=O)[C@H](CCCNC(=N)N)NC(=O)[C@@H](CC(C)C)NC(=O)[C@H](C)N(C)C(=O)[C@H](CCCNC(=N)N)NC(=O)[C@H](Cc3ccc(-c4ccccc4)cc3)NC(=O)[C@H](C(C)C)NC2=O)c1 [Compound 1125] ({CH2CO}-FYD[Phe(3-Me)]V[Bip]R[NMeA][dL]RLVTCA-NH2; thioether N-14) | 0.05 µM |
| COc1cccc(-c2ccc(C[C@@H]3NC(=O)[C@H](C(C)C)NC(=O)[C@H](Cc4c[nH]c5ccccc45)NC(=O)[C@H](CC(=O)O)NC(=O)[C@H](Cc4ccc(O)cc4)NC(=O)[C@H](CC(N)=O)NC(=O)CSC[C@@H](C(=O)N[C@@H](C)C(N)=O)NC(=O)[C@H]([C@@H](C)O)NC(=O)[C@H](C(C)C)NC(=O)[C@H](CC(C)C)NC(=O)[C@H](CCN)NC(=O)[C@@H](CC(C)C)NC(=O)[C@H](C)N(C)C(=O)[C@H](CCCNC(=N)N)NC3=O)cc2)c1 [Compound 1211] ({CH2CO}-NYDWV[X39]R[NMeA][dL][Dab]LVTCA-NH2; thioether N-14) | 0.37 µM |
| Cc1cccc(C[C@@H]2NC(=O)[C@H](CC(=O)O)NC(=O)[C@H](Cc3ccncc3)NC(=O)[C@H](Cc3ccc(OCC(=O)O)cc3)NC(=O)CSC[C@@H](C(N)=O)NC(=O)[C@H](CO)NC(=O)[C@H](C(C)C)NC(=O)[C@H](CC(C)C)NC(=O)[C@H](CC(N)=O)NC(=O)[C@@H](CC(C)C)NC(=O)[C@H](C)N(C)C(=O)[C@H](CCCNC(N)=O)NC(=O)[C@H](Cc3ccc(-c4ccccc4)cc3)NC(=O)[C@H](CC(C)C)NC2=O)c1 [Compound 1642] ({CH2CO}-Y(Carboxymethyl)[4Pal]D[Phe(3-Me)]L[Bip][Cit][NMeA][dL]NLVSC-NH2; thioether N-14) | 0.18 µM |
